The record followed here is PMC12036814 (Angewandte Chemie (International Ed. in English), 2025).

Test [1] concerns HEK‐293 cells. Briefly: Whole proteome analysis (LC-MS/MS, LFQ) of treated HEK-293 cells. Further details: regulation of ETC complex I and IV subunits: dose or concentration left out as unconfirmed. To be noted: […] μM, 3 h to 14 days, versus control.
Test [2] addresses T1, AIFM1 (Homo sapiens, UniProt O95831).
T1 construct: made in house; host or cells: E. coli Rosetta2
Briefly: Gel-based labelling of recombinant AIFM1 spiked into HEK-293 lysate. The test is classed as binding. To be noted: excess compound added prior to probe. As for the experimental part:
(§1) AIFM1 expression & purification
(§2) Recombinant AIFM1 was expressed in a Rosetta2 E. coli strain. Bacterial growth was conducted in LB media supplemented with riboflavin and FAD shaking at 37°C and 180 rpm. Expression was induced with 1.0 mM IPTG and incubated for further 16 h before harvesting. Cells were harvested on ice in PBS and cell pellets stored at -20°C. Cells were lysed by French press and the 6xHis-tagged constructs were purified by Immobilized Metal Affinity Chromatography using Ni Sepharose (6 Fast Flow, GE). The centrifugation-cleared bacterial lysate was bound to beads in binding buffer (200 mM NaCl, 20 mM Tris/Cl pH = 7.4). […]
(§3) For gel-based fluorescence labelling of recombinant AIFM1, 1.7 µM recombinant protein was spiked - in to PBS or PBS -diluted HEK293 cell lysate ( 100 µg per reaction sample). […]
(§4) Click Master-mix (8 µL, 100 µM TAMRA-azide, Baseclick, Neuried, Germany, Cat# BCFA-008-10, 500 µM BTTAA ligand, Jena Bioscience, Jena, Germany, CLK -067, 1 mM CuSO4) was added and the CuAAC reaction started by addition of 2 µL of aq. sodium ascorbate (c end= 2 mM). […] Fluorescence scanning was performed using a Las-3000 fluorescence darkbox (Fujifilm, Minato, Japan) with a Fujinon VRF 43LMD Lens, 605DF40 filter and 520 nm EPI excitation wavelength and loading controls were developed with Coomassie stain afterwards. […]

For test [3], the target named is NUDT1 (Homo sapiens, UniProt P36639). Put plainly: Gel-based AfBPP labelling of recombinant NUDT1 spiked into human lysate. Further details: Full length NUDT1 gene synthesis; N-terminal His tag with thrombin site from pET28a(+) (NdeI/XhoI) (N, cleaved yes); made in house; host or cells: E. coli BL21 (DE3). It is filed as binding. Conditions: parent compound added before probe.

Test [4] deals with T2, PTGR2 (Homo sapiens, UniProt Q8N8N7).
T2 construct: purchased Antikoerper-online ABIN1098255
T2 sequence (Q8N8N7 whole entry): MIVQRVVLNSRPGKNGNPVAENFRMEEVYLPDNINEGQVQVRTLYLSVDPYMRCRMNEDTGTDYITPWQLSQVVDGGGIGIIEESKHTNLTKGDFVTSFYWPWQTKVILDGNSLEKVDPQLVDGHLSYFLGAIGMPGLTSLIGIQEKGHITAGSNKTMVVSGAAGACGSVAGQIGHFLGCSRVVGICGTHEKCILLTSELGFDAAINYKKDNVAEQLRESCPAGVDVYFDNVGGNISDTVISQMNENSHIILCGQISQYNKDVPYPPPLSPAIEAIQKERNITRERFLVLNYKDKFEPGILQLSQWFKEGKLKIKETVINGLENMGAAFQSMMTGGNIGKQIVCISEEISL
Put plainly: PTGR2 activity assay (LC-MS/MS). It is filed as biochemical. Conditions: tested up to 250 μM, data not shown. As for the experimental part: as §1, §2, §3, §4

T1 sequence (O95831 102-613): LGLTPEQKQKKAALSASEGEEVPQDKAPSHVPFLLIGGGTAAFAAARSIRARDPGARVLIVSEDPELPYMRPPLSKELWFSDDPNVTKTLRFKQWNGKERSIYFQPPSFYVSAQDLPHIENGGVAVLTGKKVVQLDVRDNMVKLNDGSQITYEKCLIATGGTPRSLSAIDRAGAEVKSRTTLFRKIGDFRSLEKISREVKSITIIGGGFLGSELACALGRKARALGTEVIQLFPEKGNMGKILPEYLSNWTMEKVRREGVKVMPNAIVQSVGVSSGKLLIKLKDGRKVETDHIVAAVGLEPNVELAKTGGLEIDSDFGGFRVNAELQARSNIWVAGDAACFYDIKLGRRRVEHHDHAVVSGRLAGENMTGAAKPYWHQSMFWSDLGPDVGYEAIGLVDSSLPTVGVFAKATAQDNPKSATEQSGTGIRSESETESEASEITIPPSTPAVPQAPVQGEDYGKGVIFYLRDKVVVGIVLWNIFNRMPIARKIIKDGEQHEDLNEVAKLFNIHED

For the molecule `O=C(O)c1cn(C2CC2)c2cc(N3CCNCC3)c(F)cc2c1=O` [Ciprofloxacin], in test [1], the “regulation of ETC complex I and IV subunits” value was “pronounced and time‐dependent down‐regulation of both complexes”. Besides, the “competition of Cipro P1 labelling of recombinant AIFM1” value in test [2] is “strong reduction of signal intensity”. In test [3], the “competition of Cipro P2 / Levo P2 labeling of recombinant NUDT1” value is listed as “competed”. In addition, in test [4], the PTGR2 activity result is “not significantly affected”.
